Target: T1, mineralocorticoid receptor (MR) (Rattus norvegicus, UniProt P22199)
T1 construct: the homogenate was centrifuged at 100,000×g for 1 hour to give a supernatant as a kidney cytosol fraction; from tissue; host or cells: kidney cytosol fraction of adrenalectomised male Sprague-Dawley rats
T1 sequence (P22199 1-981): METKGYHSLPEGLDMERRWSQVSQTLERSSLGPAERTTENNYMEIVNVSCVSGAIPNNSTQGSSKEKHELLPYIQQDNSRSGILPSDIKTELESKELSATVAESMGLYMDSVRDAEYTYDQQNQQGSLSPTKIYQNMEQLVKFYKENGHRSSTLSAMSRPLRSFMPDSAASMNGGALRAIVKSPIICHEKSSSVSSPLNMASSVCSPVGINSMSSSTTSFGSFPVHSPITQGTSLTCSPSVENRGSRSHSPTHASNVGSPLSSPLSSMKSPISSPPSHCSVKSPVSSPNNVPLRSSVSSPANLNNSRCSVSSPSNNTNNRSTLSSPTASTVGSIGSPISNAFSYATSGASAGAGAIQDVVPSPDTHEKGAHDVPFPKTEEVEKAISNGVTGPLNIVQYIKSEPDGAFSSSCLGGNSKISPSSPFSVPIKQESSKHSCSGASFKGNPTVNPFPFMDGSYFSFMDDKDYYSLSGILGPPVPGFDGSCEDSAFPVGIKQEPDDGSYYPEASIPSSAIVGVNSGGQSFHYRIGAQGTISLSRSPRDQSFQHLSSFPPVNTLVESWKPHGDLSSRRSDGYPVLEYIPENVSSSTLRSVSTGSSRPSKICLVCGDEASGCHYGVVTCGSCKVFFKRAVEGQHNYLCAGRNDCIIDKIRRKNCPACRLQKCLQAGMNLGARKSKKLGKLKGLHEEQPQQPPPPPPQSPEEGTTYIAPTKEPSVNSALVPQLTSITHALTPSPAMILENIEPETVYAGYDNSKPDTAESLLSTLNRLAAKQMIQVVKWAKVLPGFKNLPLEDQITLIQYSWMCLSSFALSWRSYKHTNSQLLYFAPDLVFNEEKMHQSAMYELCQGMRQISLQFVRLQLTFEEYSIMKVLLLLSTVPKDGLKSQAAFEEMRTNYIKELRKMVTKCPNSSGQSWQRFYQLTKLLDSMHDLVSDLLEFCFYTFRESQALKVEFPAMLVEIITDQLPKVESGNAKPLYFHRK
Test: Aldosterone receptor binding assay (rat kidney cytosol, [3H]aldosterone)
Details: MR derived from rat kidney, 3H-aldosterone; read-out: Ki values in 3H-aldosterone binding to MR
Description: The compound of the present invention has a high affinity to a mineralocorticoid receptor (MR) of mammals. For example, in a biding assay using a rat MR and ^3H-aldosterone, which was conducted according to a method disclosed in The Journal of Pharmacology and Experimental Therapeutics, 1987; 240: p. […] Accordingly, the compound [I] is useful for treating and/or preventing the diseases associated with MR, e.g., circulatory system disease including hypertension and heart failure etc.
[Aldosterone Receptor Binding Assay]
(1) Preparation of Kidney Cytosol Fraction:
Kidneys derived from post-adrenalectomy Sprague-Dawley male rats (7 weeks old) were homogenized in the following buffer solution and the homogenate was centrifuged at 100,000×g for 1 hour to give a supernatant as a kidney cytosol fraction (protein concentration: 15 mg/mL) for the present biding assay.
Composition of Buffer Solution:
50 mM Tris-HCl (pH 7.5), 250 mM Sucrose, 50 mM Potassium chloride, 3 mM Magnesium chloride, 20 mM Sodium molybdate and 1 mM Mercaptoethanol
A mixture of 5 μL of a solution of each test compound in dimethylsulfoxide, 200 μL of kidney cytosol fraction, 50 μL of physiological saline (or 50 μL of unlabeled aldosterone solution (final concentration: 1 μM) and 50 μL of [^3H] aldosterone solution (ca. 2 nM) was incubated in a test tube at 4° C. overnight. Thereto was added 100 μL of dextrane-coated charcoal/10 mM Tris-HCl buffer and the mixture was incubated at 4° C. for 30 minutes. The reaction mixture was centrifuged at 3000 rpm for 10 minutes and to the supernatant (150 μL) was added 5 mL of a scintillater (Clearsol I, Nakarai Tesque). The radioactivity was measured by a liquid scintilation counter (TRI CARB 2200C A, Packard). The concentration of each test compound required to produce 50% inhibition of aldosterone-binding to receptors (IC50; μM) was calculated on the basis of the above quantitated radioactivity. Moreover, the dissociation constant (Ki) of each test compound was calculated on Cheng and Prusoff s equation (Ki=IC50/(1+[L]/Kd), wherein [L] is [^3H]aldosterone concentration and Kd is the affinity constant of aldosterone).

Row | SMILES | Ki [µM]
1 | CC1=C(c2ccc(F)cc2)c2ccc(NS(C)(=O)=O)cc2OC1(C)C [Example 6, N-[4-(4-fluorophenyl)-2,2,3-trimethyl-2H-chromen-7-yl]methanesulfonamide] | < 10
2 | CC1(C)N=C(c2ccc(F)cc2)c2c(F)cc(N)cc2O1 [5-fluoro-4-(4-fluorophenyl)-2,2-dimethyl-2H-1,3-benzoxazin-7-amine] | < 10
3 | CC1(C)Oc2cc(N)ccc2C(c2ccc(F)cc2)=C1C#N [7-amino-4-(4-fluorophenyl)-2,2-dimethyl-2H-chromen-3-carbonitrile] | < 10
4 | CC1(C)N=C(c2ccc(Cl)cc2)c2ccc(NS(C)(=O)=O)cc2O1 [Example 1, N-[4-(4-chlorophenyl)-2.2-dimethyl-2H-1,3-benzoxazin-7-yl]methanesulfonamide] | < 10

Same assay, conditions: [3H]aldosterone binding to MR of rat kidney cytosol fraction; Ki by Cheng-Prusoff; read-out: Ki

Row | SMILES | Ki [µM]
5 | CNS(=O)(=O)c1ccc2c(c1)OC(C)(C)N=C2c1ccc(F)cc1 [Example 61, N,2,2-trimethyl-4-(4-fluorophenyl)-2H-1,3-benzoxazin-7-sulfonamide] | 0.5 to 1
6 | Cc1cc(NS(C)(=O)=O)cc2c1C(c1ccc(F)cc1)=NC(C)(C)O2 [Example 47] | < 0.5
7 | CC1(C)N=C(c2csc3ccccc23)c2ccc(NS(C)(=O)=O)cc2O1 [Example 26] | < 0.5
8 | CC1=C(c2ccc(F)cc2)c2ccc(NS(C)(=O)=O)cc2OC1(C)C [Example 6, N-[4-(4-fluorophenyl)-2,2,3-trimethyl-2H-chromen-7-yl]methanesulfonamide] | < 0.5
9 | CS(=O)(=O)Nc1ccc2c(c1)OC1(CCCC1)C(C#N)=C2c1ccc(F)cc1 [Example 55(2) compound (a), N-[3-cyano-4-(4-fluorophenyl)spiro[chromen-2′,1′-cyclopentan]-7-yl]methanesulfonamide] | < 0.5
10 | Cc1cc(Cl)ccc1C1=CC(C)(C)Oc2cc(NS(C)(=O)=O)ccc21 [Example 42] | < 0.5
11 | CC1(C)N=C(c2ccccc2)c2ccc(NS(C)(=O)=O)cc2O1 [Example 10] | 0.5 to 1
12 | CC1(C)Oc2cc(NS(C)(=O)=O)ccc2C(c2ccc(Cl)c(F)c2)=C1C#N [Example 53] | < 0.5
13 | CC1(C)N=C(c2ccc(Cl)cc2)c2ccc(NS(C)(=O)=O)cc2O1 [Example 1, N-[4-(4-chlorophenyl)-2.2-dimethyl-2H-1,3-benzoxazin-7-yl]methanesulfonamide] | < 0.5
14 | CC1(C)CC(c2ccc(F)cc2)c2ccc(NS(C)(=O)=O)cc2O1 (centres unmarked) [Example 8, N-[4-(4-fluorophenyl)-2,2-dimethyl-3,4-dihydro-2H-chromen-7-yl]methanesulfonamide] | < 0.5

Source: patent US8410166B2, “Fused bicyclic compound” (Mitsubishi Tanabe Pharma Corporation, priority 2007, dated 2013)
